Tested on: compound-treated mice
Test: Neuropharmacological assay (SmartCube): behavioral activity signature and minimal effective dose
Type: in vivo
Conditions: for minimal effective dose: Mus musculus, ip, MED = dose having 50% or more total activity, read-out: Potency: minimal effective dose (MED); for AD: ADHD (probability of activity signature) / AG: analgesic (probability of activity signature) / AX: anxiolytic (probability of activity signature) / CE: cognitive enhancer (probability of activity signature) / DP: anti-depressant (probability of activity signature) / MS: mood stabilizer (probability of activity signature) / PS: anti-psychotic (probability of activity signature) / SD: sedative hypnotic (probability of activity signature) / UN: uncharacterized CNS activity (probability of activity signature): i.p. 15 min before test, most efficacious dose(s)
Method in brief: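 Video-recorded behavior is compared algorithmically against a reference-compound database, yielding class probabilities (best dose reported). Compounds given i.p. in NMP/PEG/propylene glycol 15 min pre-test at 3 doses; potency as MED, the dose (mpk, range usually 0.3–30) reaching ≥50% total activity.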

SMILES | minimal effective dose | AD: ADHD (probability of activity signature) | AG: analgesic (probability of activity signature) | AX: anxiolytic (probability of activity signature) | CE: cognitive enhancer (probability of activity signature) | DP: anti-depressant (probability of activity signature) | MS: mood stabilizer (probability of activity signature) | PS: anti-psychotic (probability of activity signature) | SD: sedative hypnotic (probability of activity signature) | UN: uncharacterized CNS activity (probability of activity signature)
Cl.NC1COCc2c(Cl)cccc21 (stereo not drawn) [Example 5] | < 3 mg/kg | + (LOQ ≤ + <5%) | ++ (5% ≤ ++ <25%) | ++ (5% ≤ ++ <25%) | ++ (5% ≤ ++ <25%) | ++ (5% ≤ ++ <25%) | + (LOQ ≤ + <5%) | ++ (5% ≤ ++ <25%) | ++ (5% ≤ ++ <25%) | +++ (25% ≤ +++ <50%)
NC1COCc2ccc(F)cc21 (stereo not drawn) [Example 6] | 3 to 10 mg/kg | + (LOQ ≤ + <5%) | ++ (5% ≤ ++ <25%) | ++ (5% ≤ ++ <25%) | + (LOQ ≤ + <5%) | ++ (5% ≤ ++ <25%) | + (LOQ ≤ + <5%) | + (LOQ ≤ + <5%) | ++ (5% ≤ ++ <25%) | ++++ (50% ≤ ++++)
Cl.NC1COCc2ccc(-c3ccccc3)cc21 (stereo not drawn) [Example 7, 6-Phenylisochroman-4-amine hydrochloride] | 10 to 30 mg/kg | + (LOQ ≤ + <5%) | + (LOQ ≤ + <5%) | ++ (5% ≤ ++ <25%) | ++ (5% ≤ ++ <25%) | ++ (5% ≤ ++ <25%) | ++ (5% ≤ ++ <25%) | ++ (5% ≤ ++ <25%) | + (LOQ ≤ + <5%) | +++ (25% ≤ +++ <50%)
CC(C)c1ccc2c(c1)C(N)COC2.Cl (stereo not drawn) [Example 8, 6-Isopropylisochroman-4-amine hydrochloride] | 10 to 30 mg/kg | + (LOQ ≤ + <5%) | ++ (5% ≤ ++ <25%) | ++ (5% ≤ ++ <25%) | ++ (5% ≤ ++ <25%) | ++ (5% ≤ ++ <25%) | + (LOQ ≤ + <5%) | ++ (5% ≤ ++ <25%) | +++ (25% ≤ +++ <50%) | ++ (5% ≤ ++ <25%)
Cl.NC1COCc2ccc(C(F)(F)F)cc21 (stereo not drawn) [Example 9, 6-Trifluoromethylisochroman-4-amine hydrochloride] | 3 to 10 mg/kg | + (LOQ ≤ + <5%) | ++ (5% ≤ ++ <25%) | ++ (5% ≤ ++ <25%) | ++ (5% ≤ ++ <25%) | ++ (5% ≤ ++ <25%) | + (LOQ ≤ + <5%) | ++ (5% ≤ ++ <25%) | + (LOQ ≤ + <5%) | +++ (25% ≤ +++ <50%)
COc1ccc2c(c1)C(N)COC2.Cl (stereo not drawn) [Example 10, 6-Methoxyisochroman-4-amine hydrochloride] | 3 to 10 mg/kg | + (LOQ ≤ + <5%) | ++ (5% ≤ ++ <25%) | ++ (5% ≤ ++ <25%) | +++ (25% ≤ +++ <50%) | ++ (5% ≤ ++ <25%) | + (LOQ ≤ + <5%) | +++ (25% ≤ +++ <50%) | ++ (5% ≤ ++ <25%) | ++ (5% ≤ ++ <25%)
CC(C)(C)c1ccc2c(c1)C(N)COC2.Cl (stereo not drawn) [Example 11] | 10 to 30 mg/kg | + (LOQ ≤ + <5%) | + (LOQ ≤ + <5%) | + (LOQ ≤ + <5%) | ++ (5% ≤ ++ <25%) | ++ (5% ≤ ++ <25%) | + (LOQ ≤ + <5%) | + (LOQ ≤ + <5%) | ++ (5% ≤ ++ <25%) | + (LOQ ≤ + <5%)
Cl.NC1COCc2ccccc21 (stereo not drawn) [Example 12] | 10 to 30 mg/kg | + (LOQ ≤ + <5%) | ++ (5% ≤ ++ <25%) | ++ (5% ≤ ++ <25%) | ++ (5% ≤ ++ <25%) | ++ (5% ≤ ++ <25%) | + (LOQ ≤ + <5%) | ++ (5% ≤ ++ <25%) | + (LOQ ≤ + <5%) | +++ (25% ≤ +++ <50%)
Cl.NC1COCc2ccc3ccccc3c21 (stereo not drawn) [Example 13] | 3 to 10 mg/kg | + (LOQ ≤ + <5%) | ++ (5% ≤ ++ <25%) | ++ (5% ≤ ++ <25%) | ++ (5% ≤ ++ <25%) | ++ (5% ≤ ++ <25%) | + (LOQ ≤ + <5%) | ++ (5% ≤ ++ <25%) | + (LOQ ≤ + <5%) | ++++ (50% ≤ ++++)
COc1ccc2c(c1)COCC2N.Cl (stereo not drawn) [Example 14] | 10 to 30 mg/kg | + (LOQ ≤ + <5%) | ++ (5% ≤ ++ <25%) | ++ (5% ≤ ++ <25%) | + (LOQ ≤ + <5%) | ++ (5% ≤ ++ <25%) | + (LOQ ≤ + <5%) | + (LOQ ≤ + <5%) | + (LOQ ≤ + <5%) | ++++ (50% ≤ ++++)
Cl.NC1COCc2ccc3ncccc3c21 (stereo not drawn) [Example 15] | > 30 mg/kg | + (LOQ ≤ + <5%) | + (LOQ ≤ + <5%) | + (LOQ ≤ + <5%) | + (LOQ ≤ + <5%) | + (LOQ ≤ + <5%) | + (LOQ ≤ + <5%) | + (LOQ ≤ + <5%) | + (LOQ ≤ + <5%) | + (LOQ ≤ + <5%)
Cc1nc2c3c(ccc2s1)COCC3N.Cl (stereo not drawn) [Example 16] | 10 to 30 mg/kg | + (LOQ ≤ + <5%) | ++ (5% ≤ ++ <25%) | +++ (25% ≤ +++ <50%) | ++ (5% ≤ ++ <25%) | + (LOQ ≤ + <5%) | + (LOQ ≤ + <5%) | ++ (5% ≤ ++ <25%) | + (LOQ ≤ + <5%) | +++ (25% ≤ +++ <50%)
CCc1cccc2c1COCC2N.Cl (stereo not drawn) [Example 17, 8-Ethylisochroman-4-amine hydrochloride] | 10 to 30 mg/kg | + (LOQ ≤ + <5%) | ++ (5% ≤ ++ <25%) | +++ (25% ≤ +++ <50%) | ++ (5% ≤ ++ <25%) | ++ (5% ≤ ++ <25%) | + (LOQ ≤ + <5%) | ++ (5% ≤ ++ <25%) | + (LOQ ≤ + <5%) | +++ (25% ≤ +++ <50%)
CC(C)c1cccc2c1COCC2N.Cl (stereo not drawn) [Example 18, 8-Isopropylisochroman-4-amine hydrochloride] | 10 to 30 mg/kg | + (LOQ ≤ + <5%) | +++ (25% ≤ +++ <50%) | ++ (5% ≤ ++ <25%) | ++ (5% ≤ ++ <25%) | ++ (5% ≤ ++ <25%) | + (LOQ ≤ + <5%) | ++ (5% ≤ ++ <25%) | ++ (5% ≤ ++ <25%) | + (LOQ ≤ + <5%)
Cl.NC1COCc2ccc3c(c21)CCCC3 (stereo not drawn) [Example 19, 2,4,7,8,9,10-Hexahydro-1H-benzo[f]isochromen-1-amine hydrochloride] | 10 to 30 mg/kg | + (LOQ ≤ + <5%) | ++ (5% ≤ ++ <25%) | +++ (25% ≤ +++ <50%) | ++ (5% ≤ ++ <25%) | + (LOQ ≤ + <5%) | + (LOQ ≤ + <5%) | ++ (5% ≤ ++ <25%) | ++ (5% ≤ ++ <25%) | +++ (25% ≤ +++ <50%)

Source: US11077090B2, “Compounds and compositions and uses thereof” (Sunovion Pharmaceuticals Inc., priority 2016, dated 2021)
